This is an account of results in patent US12690589B2, “Herbicidal compositions comprising pyroxasulfone” (BASF SE, priority 2024, dated 2026).

Common to all, as to assay: Post-emergence application in field trials, herbicidal activity (damage scale 0 to 100%)
Common to all, as to format: in vivo

Assay [1] relates to Digitaria sanguinalis (DIGSA). The settings on record: stage 22, height 10-15 cm. On the procedure:
(§1) In the examples below, using the method of S. R. Colby (1967) “Calculating synergistic and antagonistic responses of herbicide combinations”, Weeds 15, p. 22ff., the value E, which is expected if the activity of the individual active compounds is only additive, was calculated:
(§2) [formula] • wherein • X=percent activity using active herbicide A at an application rate a; • Y=percent activity using active herbicide B (e.g. pyroxasulfone) at an application rate b; • E=expected activity (in %) by A+B at application rates a+b.
(§3) For 3-component mixtures the synergistic response was calculated as described in: Ferry, Nancy; Stanley, Bruce H.; and Armel, Gregory (2005). “DESIGN AND ANALYSIS OF BIOLOGICAL ASSAYS OF MIXTURES,” Conference on Applied Statistics in Agriculture. https://doi.org/10.4148/2475-7772.1133. According to this publication, the Colby calculation can be generalized to a third mixing partner, Z, employing the following formula: […]
(§4) If the value found experimentally is higher than the value E calculated according to Colby, a synergistic effect is present.
(§5) On field test sites, natural weed infestation or seeded weeds were treated post-emergence of the weeds.
(§6) In the field trials, the weeds were treated as indicated below.
(§7) In the following experiments, the herbicidal activity for the individual herbicidal compositions (solo and mixture applications) was assessed at the indicated days after treatment (DAT). The assessments for the damage on undesired weeds caused by the composition was carried out using a scale from 0 to 100%, compared to the untreated control plants. Here, 0 means no damage and 100 means complete destruction of the plants.
(§8) Herbicide A-1 (342 g/l) and pyroxasulfone (500 g/l) were, together with addition of 0.25 v/v % MSO (methylated seed oil) as adjuvant, formulated in 200 l/ha water as distribution medium and sprayed with commercial flat fan nozzles.
(§9) Herbicide A-1 (342 g/l), pyroxasulfone (500 g/l) and trifludimoxazin (500 g/l) were, together with addition of 0.25 v/v % MSO (methylated seed oil) as adjuvant, formulated in 200 l/ha water as distribution medium and sprayed with commercial flat fan nozzles.
(§10) Herbicide A-1 (342 g/I), pyroxasulfone (500 g/l) and glyphosate-isopropylammonium (356 g/l) were, together with addition of 0.25 v/v % MSO (methylated seed oil) as adjuvant, formulated in 200 l/ha water as distribution medium and sprayed with commercial flat fan nozzles.
(§11) Herbicide A-1 (342 g/l), pyroxasulfone (500 g/l) and glufosinate-P-ammonium (211 g/l) were, together with addition of 0.25 v/v % MSO (methylated seed oil) as adjuvant, formulated in 200 l/ha water as distribution medium and sprayed with commercial flat fan nozzles.
(§12) Herbicide A-1 (342 g/l), pyroxasulfone (500 g/l) and 2,4-D-choline (456 g/l) were, together with addition of 0.25 v/v % MSO (methylated seed oil) as adjuvant, formulated in 200 l/ha water as distribution medium and sprayed with commercial flat fan nozzles.

The test system of assay [2] is Setaria verticillata (SETVE). The settings on record: 7 DAT, stage 21-23, height 8-16 cm. On the procedure:
as §1, §2, §3, §4, §5, §6, §7, §8, §9, §10, §11, §12

Assay [3] deals with Amaranthus retroflexus (AMARE). As to conditions: stage 31-49, height 10-12 cm. On the procedure: as §1, §2, §3, §4, §5, §6, §7, §8, §9, §10, §11, §12
The subject of assay [4] is Zea mays (ZEAMX). The settings on record: 7 DAT; stage 15-16, height 27-33 cm; g ai/ha A-1 18, B 90, C-4 12.5. The protocol:
as §1, §2, §3, §4, §5, §6, §7, §8, §9, §10, §11, §12

Assay [5] concerns Glycine max (GLXMA). The settings on record: 7 DAT; stage 12-13, height 7-11 cm; g ai/ha A-1 12.5, B 70, C-4 12.5. The protocol: as §1, §2, §3, §4, §5, §6, §7, §8, §9, §10, §11, §12
[6] abbreviates: 7 DAT, g ai/ha A-1 12.5, B 70, C-4 12.5.
[7] abbreviates: 42 DAT, g ai/ha A-1 12.5, B 70, C-4 12.5.
The mark [8] stands for this setting: 42 DAT, g ai/ha A-1 18, B 70, C-4 12.5.
The mark [9] stands for this setting: 42 DAT, g ai/ha A-1 18, B 90, C-4 12.5.

Take `CC(C)N.O=C(O)CNCP(=O)(O)O` [C-8, glyphosate-isopropylammonium]: the “% Herbicidal activity” value in assay [1] (7 DAT, g ai/ha A-1 18, B 70, C-8 840) is on record as 85%; in assay [1] (7 DAT, g ai/ha A-1 18, B 90, C-8 840), 85%; in assay [2] (g ai/ha A-1 18, B 70, C-8 840), 75%; in assay [2] (g ai/ha A-1 18, B 90, C-8 840) it was 75%.
With `C#CCN1C(=O)C(F)(F)Oc2cc(F)c(-n3c(=O)n(C)c(=S)n(C)c3=O)cc21` [C-4, trifludimoxazin], the “% Herbicidal activity” value in assay [1] (setting [6]) was found to be 30%; in assay [1] (7 DAT, g ai/ha A-1 18, B 70, C-4 12.5) it was 30%; in assay [1] (7 DAT, g ai/ha A-1 18, B 90, C-4 12.5), 30%; in assay [1] (21 DAT, g ai/ha A-1 12.5, B 70, C-4 12.5) it was 30%; in assay [1] (21 DAT, g ai/ha A-1 18, B 70, C-4 12.5), 30%; in assay [1] (21 DAT, g ai/ha A-1 18, B 90, C-4 12.5) it was 30%. Also, the “% Herbicidal activity” value in assay [1] (setting [7]) was determined as 20%; in assay [1] (setting [8]), 20%; in assay [1] (setting [9]), 20%; in assay [2] (g ai/ha A-1 18, B 90, C-4 12.5), 40%; in assay [3] (setting [6]), 80%; in assay [3] (setting [7]), 80%. Also, the “% Herbicidal activity” value worked out at 80% in assay [3] (setting [8]), 80% in assay [3] (setting [9]), 40% in assay [4] and 75% in assay [5].
